Measured values taken from patent publication US11400101B2, “Treatment of allergic rhinitis using a combination of mometasone and olopatadine” (GLENMARK SPECIALTY S.A., priority 2013, dated 2022).
Marks after values point to notes of the source that are not given here.

Columns and labels:
[1] = test system: sneezing response; experiment: Sneezing response in ovalbumin induced rhinitis model (whole body plethysmography); assay type: in vivo, guinea pigs; conditions: for Inhibition of sneezing response (in words) / Number of Sneeze (0-50 min): MF 10 μg; for Percent inhibition of sneeze: MF 10 μg per animal, vs ovalbumin control; for Number of Sneeze (0-50 min): intranasal, ovalbumin challenged
Procedure: Male Dunkin Hartley guinea pigs were actively sensitized with a subcutaneous injection of 1.5 mg of ovalbumin and 20 mg of aluminum hydroxide gel on days 0 and 7. Guinea pigs were sensitized intranasally with 2% ovalbumin from days 14-17. On day 28, the animals were challenged with 6% ovalbumin intranasally. Mometasone furoate 10 μg was given intranasally 24 hours and 1 hour prior to the final ovalbumin challenge. Olopatadine hydrochloride was given intranasally 1 hour before the final ovalbumin challenge. The dosing volume was 40 μl/animal. The saline control group and ovalbumin control group received vehicle (40 μl, 0.1% Tween 80 in distilled water). Sneezing response was determined by using whole body plethysmography (Buxco Research Systems, USA) for 50 minutes after final saline or ovalbumin challenge. The procedure in Example 1 was repeated except 120 μg of olopatadine hydrochloride (based on the equivalent weight of olopatadine free base) was used. The animal groups in Table 3 below were used during this experiment. Compound administration was performed as in Example 1, except the dosing volume was 60 μl/animal. The saline control group and ovalbumin control group received vehicle (60 μl, 0.1% Tween 80 in distilled water). In vivo evaluations were performed as in Example 1.

[2] = test system: total cells and eosinophils in nasal lavage; experiment: Nasal lavage total cell count and eosinophils in ovalbumin induced rhinitis model; assay type: in vivo, guinea pigs; conditions: for Inhibition of total cell and eosinophils in nasal lavage (in words): MF 10 μg; for % inhibition of eosinophils / Percent inhibition of total cell count / Eosinophils × 10^5/ml nasal lavage / Total cell count × 10^5/ml nasal lavage: MF 10 μg per animal
Procedure: Male Dunkin Hartley guinea pigs were actively sensitized with a subcutaneous injection of 1.5 mg of ovalbumin and 20 mg of aluminum hydroxide gel on days 0 and 7. Guinea pigs were sensitized intranasally with 2% ovalbumin from days 14-17. On day 28, the animals were challenged with 6% ovalbumin intranasally. Mometasone furoate 10 μg was given intranasally 24 hours and 1 hour prior to the final ovalbumin challenge. Olopatadine hydrochloride was given intranasally 1 hour before the final ovalbumin challenge. The dosing volume was 40 μl/animal. The saline control group and ovalbumin control group received vehicle (40 μl, 0.1% Tween 80 in distilled water). Nasal lavage was performed at 4 hours after challenge of animals with saline or ovalbumin on day 28. Animals were anesthetized with an overdose of urethane, the trachea was exposed and nasal lavage was performed using 2 mL pre-warmed normal saline. The collected nasal lavage was taken for total cell count using a hemocytometer. The nasal lavage was centrifuged, and the cell pellet resuspended in 15 μL guinea pig serum and used for preparation of smears. Slides were stained with Leishman's stain and a differential cell count of 100 cells based on standard morphology was performed manually. The total number of eosinophils in each nasal lavage sample was calculated using the formula: [formula] Percent inhibition of eosinophils was calculated using the following formula: The procedure in Example 1 was repeated except 120 μg of olopatadine hydrochloride (based on the equivalent weight of olopatadine free base) was used. The animal groups in Table 3 below were used during this experiment. Compound administration was performed as in Example 1, except the dosing volume was 60 μl/animal. The saline control group and ovalbumin control group received vehicle (60 μl, 0.1% Tween 80 in distilled water). In vivo evaluations were performed as in Example 1.

[3] = Plasma pharmacokinetics of TP-1 in the Phase III study, day 1 and day 8 (steady state); assay type: in vivo, human; conditions: patients receiving TP-1 twice daily
From the text: This study consisted of four visits to the study site. After the initial screening visit (Visit 1), subjects who met all study selection criteria were required to undergo a single-blind placebo run-in period for 7-10 days. Following the completion of the run-in period, eligible subjects meeting the randomization criteria were enrolled and randomized to one of the four treatment arms. Subjects were dispensed medication as per the randomization list. Randomized subjects were required to undergo a 2 week (14 days) treatment period as per the protocol to assess the efficacy and safety of the assigned treatment. Subjects were instructed to record the symptom scores in a symptom assessment diary. They were also scheduled to have at least two blood samples for PK assessment during the treatment period.
• Change from baseline in average AM and PM subject-reported 12-hour rTNSS (reflective TNSS) over the 14-day treatment period. Secondary Endpoints • Change from baseline in average AM and PM subject-reported 12-hour iTNSS (instantaneous TNSS) over the 14 day treatment period. • Change from baseline in average AM and PM subject-reported 12-hour rTOSS (reflective TOSS) over the 14-day treatment period. • Onset of action for each treatment are assessed by comparing the change from baseline in post-treatment iTNSS between each active treatment and placebo at defined time points (prior to first dose (pre-dose), 15 min, 30 min, 45 min, 60 min, 90 min, 120 min, 150 min, 180 min, 210 min, and 240 min) after the first study treatment for 4 hours. • Change from baseline in the overall Rhinoconjunctivitis Quality of Life questionnaire (RQLQ)—Standardized Activities (RQLQ(S)) score on Day 15 (Visit 4) for the Full Analysis Set (FAS). Pharmacokinetic Endpoints • Plasma PK: Maximum plasma concentration (Cmax), time to attain Cmax (Tmax), and area under the plasma concentration-time curve over the dosing interval (AUCtau) will be estimated for mometasone furoate and olopatadine on Day 1 and Day 8 based on the pharmacokinetic analysis set (PKAS). Tertiary Efficacy Endpoints Nasal Symptoms: • Change from baseline in AM subject-reported rTNSS over the 14-day treatment period. • Change from baseline in AM subject-reported iTNSS over the 14-day treatment period. • Change from baseline in PM subject-reported rTNSS over the 14-day treatment period. • Change from baseline in PM subject-reported iTNSS over the 14-day treatment period. • Change from baseline in subject-reported reflective individual nasal symptoms over the 14-day treatment period (AM, PM and average of AM and PM). • Change from baseline in subject-reported instantaneous individual nasal symptoms over the 14-day treatment period (AM, PM and average of AM and PM). • Change from baseline in average AM and PM subject-reported rTNSS and iTNSS for each day. • Change from baseline in AM subject-reported rTNSS and iTNSS for each day. • Change from baseline in PM subject-reported rTNSS and iTNSS for each day. […]

[4] = Pharmacokinetics of mometasone furoate, single-dose three-period cross-over study, Example 13; assay type: in vivo, human; conditions: single dose nasal spray
Procedure: The pharmacokinetics of mometasone furoate in a fixed dose combination of mometasone furoate and olopatadine hydrochloride nasal spray was evaluated in a clinical trial. The clinical trial was a randomized, single-center, single-dose, open-label, three-period, six-sequence, cross-over study to evaluate three treatments administered by nasal spray. The three treatments included a combination of mometasone furoate and olopatadine hydrochloride nasal spray, mometasone furoate nasal spray and Nasonex® nasal spray. […] The study consisted of a screening visit, 3 single-dose treatment periods with washout periods of 7 to 14 days between dosing in each treatment period, an early withdrawal visit if applicable, and a follow-up telephone call (or visit) 1 to 7 days after completing the third treatment period. A total of 30 subjects were randomized to 1 of 6 treatment sequences and received at least 1 dose of study drug. All 30 subjects were included in the safety analysis set and the pharmacokinetic subset. All but 2 subjects completed the study per protocol.

[5] = Example 1, OH 50 μg, 4 hours after challenge

C[C@@H]1C[C@H]2[C@@H]3CCC4=CC(=O)C=C[C@]4(C)[C@@]3(Cl)[C@@H](O)C[C@]2(C)[C@@]1(OC(=O)c1ccco1)C(=O)CCl [Mometasone Furoate, Mometasone furoate]
Inhibition of sneezing response (in words) ([1]; Example 1, OH 50 μg): not effective
Percent inhibition of sneeze ([1]; Example 1, OH 50 μg): 15%
Number of Sneeze (0-50 min) ([1]; Example 1, per animal: OH 50 μg, combination 50 (OH) & 10 (MF)): 18.83
Inhibition of sneezing response (in words) ([1]; Example 2, OH 120 μg): not effective
Percent inhibition of sneeze ([1]; Example 2, OH 120 μg): −5%
Number of Sneeze (0-50 min) ([1]; Example 2, per animal: OH 120 μg, combination 120 (OH) & 10 (MF)): 37.33
Inhibition of total cell and eosinophils in nasal lavage (in words) ([2]; Example 1, OH 50 μg): significant inhibition
% inhibition of eosinophils ([2]; Example 1, OH 50 μg): 46%
Percent inhibition of total cell count ([2]; Example 1, OH 50 μg): 46%
Eosinophils × 10^5/ml nasal lavage [2, 5]: 2.00* × 10^5/ml
Total cell count × 10^5/ml nasal lavage [2, 5]: 3.90* × 10^5/ml
Inhibition of total cell and eosinophils in nasal lavage (in words) ([2]; Example 2, OH 120 μg): significant inhibition
% inhibition of eosinophils ([2]; Example 2, OH 120 μg): 20%
Eosinophils × 10^5/ml nasal lavage ([2]; Example 2, OH 120 μg): 2.69 × 10^5/ml
Percent inhibition of total cell count ([2]; Example 2, OH 120 μg): 30%
Total cell count × 10^5/ml nasal lavage ([2]; Example 2, OH 120 μg): 4.96 × 10^5/ml
Mometasone furoate AUCtau, Geo Mean ([3]; Day 1): 0.02616 ng·h/mL
Mometasone furoate AUCtau, Mean ([3]; Day 1): 0.02856 ng·h/mL
Mometasone furoate AUCtau, Min-Max ([3]; Day 1): 0.01211 to 0.07254 ng·h/mL
Mometasone furoate Cmax, Geo Mean ([3]; Day 1): 6.27 pg/mL
Mometasone furoate Cmax, Mean ([3]; Day 1): 6.78 pg/mL
Mometasone furoate Cmax, Min-Max ([3]; Day 1): 2.67 to 12.80 pg/mL
Mometasone furoate Tmax, Median ([3]; Day 1): 1.00 h
Mometasone furoate AUCtau, Geo Mean ([3]; Day 8): 0.05267 ng·h/mL
Mometasone furoate AUCtau, Mean ([3]; Day 8): 0.0584 ng·h/mL
Mometasone furoate AUCtau, Min-Max ([3]; Day 8): 0.02568 to 0.12405 ng·h/mL
Mometasone furoate Cmax, Geo Mean ([3]; Day 8): 9.17 pg/mL
Mometasone furoate Cmax, Mean ([3]; Day 8): 9.92 pg/mL
Mometasone furoate Cmax, Min-Max ([3]; Day 8): 3.58 to 16.10 pg/mL
Mometasone furoate Tmax, Median ([3]; Day 8): 1.00 h
Last time point until which quantifiable concentrations were observed [4]: 72 h
